We go through 2 molecules from patent US20140364454A1, “METAL-CHELATING COMPOUNDS HAVING AT LEAST ONE POLYAMINO CHAIN” (UNIVERSITE DE RENNES I, priority 2011, published 2014).

Molecules are shown by their SMILES. Where two headings read alike, the source gives them in different places.

In data set [1] the test system is ODC, OAZ1, SAMDC and PAO genes. As to the kind of experiment: RT-qPCR of polyamine metabolism genes in Caco-2 cells. Type of data set: cell-based, human. The conditions noted are these: proliferating Caco-2, 10 micromoles per liter, 72 hours. The method, then:
After treatment for 72 hours of the Caco-2 cells, in proliferative phase by Quilamine HQ1-44 and ICL670 in a concentration of 10 micromoles per liter, an analysis is carried by RT-qPCR of the expression of the main genes for regulating the metabolism of polyamines, such as ornithine decarboxylase (ODC), antizyme (OAZ1), S-adenosyl methionine decarboxylase (SAMDC) and polyamine oxydase (PAO).
Background: In qPCR the cycle at which signal appears reflects the starting amount.

Data set [2] is described as follows: Continuous variation method, absorption of the Quilamine-Fe(III) complex at 580 nm. Particulars: physiological pH. Type of data set: physicochemical. The method, then: At physiological pH, the Quilamine forms a Quilamine-Fe(III) complex preferably having a ligand:metal stoichiometry of 2/1. The ligand:metal stoichiometry can for example be determined by the continuous variation method, using the characteristic transition in the absorption spectrum of the Quilamine-Fe(III) complex at 580 nm, for chelator and iron concentrations ranging from 0 to 500 micromoles per liter.
The interaction of Quilamine HQ1-44 with iron (Fe3+) was assessed by means of a characteristic transition at 580 nm, observed in the absorption spectrum of the complex of Quilamine HQ1-44 with Fe(III). The continuous variation method consist in measuring the quantity of complex formed between Quilamine and Fe(III) deduced from the value of absorption at 580 nm, in bringing about a variation of the ratio of the concentrations in Quilamine/Quilamine+Fe(III) for a total concentration of Quilamine+Fe(III) that is constant and equal to 100 micromoles per liter (Tris/HCl buffer 100 millimoles per liter, pH 7.4).

Another data set relates to Caco-2 cells. As to the kind of experiment: Cell viability of proliferating Caco-2 cells (number of nuclei). In kind it is cell-based, human. The conditions noted are these: for Constituent 1 (1-10 μM) % cell / Constituent 2 (10-100 μM) % cell: Caco-2 J4, no exogenous iron; for IC50: Homo sapiens, no exogenous iron. The method, then: The action of Quilamines on the cell viability was analyzed on enterocyte cells of the Caco-2 tumor cell line derived from human colon carcinoma and compared with the action of ICL670 in the presence or absence of exogenous iron, after activation (DFMO) or competitive inhibition by spermidine, of the PTS. The operating conditions used are identical to those used for CHO/CHO-MG and HepG2 cells.
The results for the measurement of the anti-proliferative effect of Quilamines, and of ICL670 on the proliferating cells (cytostatic constituent) when there is no exogenous iron have been listed in the table 4 below.

Data set [3] can be described thus: Potentiometry: stability constants and pFe3+ of the iron complex. Type of data set: physicochemical. The method, then:
The complexation affinity of Quilamine with the metal ion in the organism reflects the chelating capacity or chelating power of Quilamine. This affinity can be assessed by measuring the value of pW corresponding to −log of the concentration in free metal ion W, i.e. non-complexated by the Quilamine for a ratio of respective concentrations of Quilamine (10 micromoles per liter) and metal ion (1 micromole per liter) equal to 10, at 25° C. and pH 7.4. The higher the value of pW, the greater the affinity of Quilamine with metal ion. The affinity of Quilamine with iron in its ferric form (Fe(III)) and its ferrous form (Fe(II)) is measured respectively by pFe^3+ and pFe^2+ at physiological pH (pH=7.4), at 25° C.
Potentiometry measurements were made in thermostated titration cells at 25±0.1° C., using a Metrohm 702 SM Titrino titrator connected to a Metrohm 6.0233.100. The ligand solution is prepared in a concentration of ˜1.5×10^−3 moles per liter, the solution of Fe^3+ is made from FeCl3 and titrated by complexation with a standard solution of EDTA (ethylenediaminetetracetic acid). The sample for the measurement contained approximately 0.03 millimoles per liter of ligand in a volume of 30 ml where the ionic strength is maintained at 0.1 mole per liter in using KNO3 as a support electrolyte. During the titrations, Fe^3+ is added to 0.45 or 0.9 equivalents of ligand. Each titration consists of 150-200 equilibrium points with pH varying from 2.0 to 11.5, and is repeated at least twice. The thermodynamic constants are computed with the software […] and the speciation diagram of the species is done by the Hyss program.

For data set [4], the system named is L-ferritin and transferrin receptor genes. In words: RT-qPCR of iron metabolism genes in Caco-2 cells. In kind it is cell-based, human. The conditions noted are these: Caco-2 in proliferative phase, 10 micromoles per liter, 72 hours. The method, then:
After treatment for 72 hours of the Caco-2 cells in proliferative phase by the Quilamine HQ1-44 and ICL670 in a concentration of 10 micromoles per liter, an analysis is carried out by real-time polymerase chain reaction (RT-qPCR) technique of the expression of the two main genes for regulating intra-cell iron metabolism, that of L-ferritin, the iron-storing protein, and that of the transferrin receptor, which is the iron-importing protein of the membrane. The DNAc (complementary dioxyribonucleic acid) synthesized during the reverse transcription are amplified by the qPCR (quantity of polymerization chain reaction) to quantify the expression of the mNRA (messenger ribonucleic acid) of the genes involved in iron metabolism.

Another data set concerns CHO cells. As to the kind of experiment: Cytotoxic effect on CHO cells, LDH release in supernatants. Particulars: hamster, 72 h. The method, then:
The in vitro efficacy of different Quilamines was tested on a wild cell line (CHO) of hamster ovarian cells having PTS and a mutant cell line CHO-MG without PTS. The two cell types CHO and CHO-MG were treated, 24 hours after being seeded in 96-well microplates, by concentrations of different Quilamines ranging from 0.1 to 400 micromoles per liter. The cytostatic (anti-proliferative) effects and cytotoxic effects of Quilamine after 72 hours' treatment of the cells were assessed respectively by counting cell nuclei after DNA marking by the Hoechst 33342 fluorescent intercalant dye and by analysis of membrane damage detected by the dosing of the lactate dehydrogenase activity (LHD) in the supernatants.
A comparison was made of the cytostatic or anti-proliferative action and the cytotoxic action for 72 h of treatment by Quilamine HQ1-44 and 8-hydroxyquinoline and ICL670, on the CHO cell lines in the presence and without the presence of exogenous iron, in the form of Fe(III) citrate in a concentration of 20 micromoles per liter. The results obtained are shown in FIG. 4, FIG. 4A relating to the results on cell viability and FIG. 4B relating to the results on cell toxicity.
(In general: LDH leaks from cells whose membrane has failed.)

The subject of another data set is HepG2 cells. In words: Anti-proliferative effect on HepG2 cells (nuclei count or SDH activity). Type of data set: cell-based, human. The conditions noted are these: HepG2, presence of exogenous iron.
Where [5] appears, read: Caco-2 J4, cytostatic constituent, read-out: Constituent 1 (1-10 μM) IC50.
[6] abbreviates: Caco-2 J4, cytotoxic constituent, read-out: Constituent 2 (10-100 μM) IC50.

In general, IC50 refers to the point on the concentration scale where inhibition reaches its midpoint. Take `NCCCCNCCCCNCc1ccc2cccc(O)c2n1` [HQ1-44, 2-[4-(4-aminobutyl)aminobutyl]aminomethylquinolin-8-ol]: the “expression of the genes of polyamine metabolism (ODC, OAZ1, SAMDC, PAO)” value in data set [1] was “no effect”. Moreover, the “ligand/iron stoichiometry of the complex with Fe(III)” value in data set [2] is 2/1. Further, in the data set on Caco-2 cells, the “Constituent 1 (1-10 μM) % cell” value turned out to be 70% and the “Constituent 2 (10-100 μM) % cell” value was found to be 30%. Moreover, the IC50 with Caco-2 cells (setting [5]) is 1.3 µM. Moreover, the IC50 with Caco-2 cells (setting [6]) turned out to be 20 µM. Further, in data set [3] (25.0° C., I = 0.1 M in KNO3), the “Constant of stability (log K), species FeL” value stood at 25.92; the “Constant of stability (log K), species FeL2” value is listed as 7.8; the “Constant of stability (log K), species FeL2H” value is 10.2; the “Constant of stability (log K), species FeL2H2” value is 8.0. Besides, in data set [3] (25.0° C., I = 0.1 M in KNO3), the “Constant of stability (log K), species FeL2H3” value was determined as 8.2; the “Constant of stability (log K), species FeL(OH)” value worked out at 7.37; the “Constant of stability (log K), species FeLH” value is given as 6.65; the “Constant of stability (log K), species FeLH2” value is given as 2.88. Besides, the “pFe3+” value in data set [3] (pH 7.4) turned out to be 27. Moreover, the “expression of the genes for L-ferritin and the transferrin receptor” value in data set [4] was “do not significantly modify”.
As to `O=C(O)c1ccc(-n2nc(-c3ccccc3O)nc2-c2ccccc2O)cc1` [ICL670, reference compound], in the data set with CHO cells, the “chelator concentration giving cytotoxic effect with release of LDH” value is “over 10 micromoles per liter”. The “expression of the genes of polyamine metabolism (ODC, OAZ1, SAMDC, PAO)” value in data set [1] is reported as “no effect”. The “influence of exogenous iron on the cytostatic effect” value is “inhibition” with Caco-2 cells (Caco-2, after addition of exogenous iron) and “inhibition” in the data set with HepG2 cells. Also, in the data set with Caco-2 cells, the “Constituent 1 (1-10 μM) % cell” value came out at 18%. Also, the “Constituent 2 (10-100 μM) % cell” value with Caco-2 cells turned out to be 82%. Also, the IC50 in the data set with Caco-2 cells (setting [5]) came out at 1.7 µM; in the data set on Caco-2 cells (setting [6]), 90 µM. For the same molecule, the “expression of the genes for L-ferritin and the transferrin receptor” value in data set [4] is given as “do not significantly modify”.
